# Reference: US11834517B2, “Branched peptides for enzymatic assembly and mitochondria drug delivery” (BRANDEIS UNIVERSITY, priority 2017, dated 2023)
# Peptide text beside a SMILES is read from it. * marks the point of attachment. X2 = O=C(Cc1ccc2ccccc2c1)N[C@H](Cc1ccccc1)C(=O)N[C@H](Cc1ccccc1)C(=O)N[C@H](CCCCN*)C(=O)NCCNc1ccc([N+](=O)[O-])c2nonc12; X3 = O=C(Cc1ccc2ccccc2c1)N[C@@H](Cc1ccccc1)C(=O)N[C@@H](Cc1ccccc1)C(=O)N[C@@H](CCCCN*)C(=O)N[C@@H](Cc1ccc(O)cc1)C(=O)O; X1 = O=C(Cc1ccc2ccccc2c1)N[C@H](Cc1ccccc1)C(=O)N[C@H](Cc1ccccc1)C(=O)N[C@H](CCCCN*)C(=O)N[C@H](Cc1ccc(O)cc1)C(=O)O
# Tests used:
# HeLa cells [1] = assay: Cell viability / cytotoxicity (MTT) assay, HeLa; assay type: cell-based
# HeLa cells [2] = assay: Cell viability after GFP-TP53 plasmid transfection, HeLa; assay type: cell-based, human; details: single agent: free GFP-TP53 plasmid (5 μg/mL) or Mito-Flag (200 μM), 3rd day
# Experimental: (§1) FIGS. 24A-G show how perimitochondrial ENS causes mitochondrial transgene expression to induce mitophagy or apoptosis. FIG. 24A is a Western blot analysis of FUNDC1 and LC3B levels in the mitochondria fraction and cytosolic fraction, respectively, of HeLa cells incubated with conditions of interest. VDAC1 serves as mitochondria protein loading control. FUNDC1 plasmid: 5 μg/mL, Mito-Flag: 200 μM, Time: 2 days. FIG. 24B is a panel of fluorescent images showing that Mito-Flag perimitochondrial ENS delivering FUNDC1 gene into mitochondria to induce mitochondrial morphology changes within 2 days. FIG. 24C is a panel of fluorescent images showing that the detection of mitophagy via immunofluorescent staining of autophagy marker, LC3 (2nd day). FIG. 24D is a panel of fluorescent images of HeLa cells incubated with free GFP-TP53 plasmid and the plasmid mixed with Mito-Flag (200 μM, 24 h). FIG. 24E is a graph illustrating cell viability of HeLa, Saos-2, and HS-5 cells incubated with free GFP-TP53 plasmid (5 μg/mL), Mito-Flag (200 μM), and the plasmid (5 μg/mL) mixed with Mito-Flag (200 μM, 3rd day). Data are presented as mean±standard deviation. FIG. 24F is a panel of fluorescent images showing an apoptosis analysis on HeLa and HS-5 cells. […]
# HS-5 cells = assay: Cell viability after GFP-TP53 plasmid transfection, HS-5; assay type: cell-based, human; details: HS-5, GFP-TP53 plasmid (5 μg/mL) mixed with Mito-Flag (200 μM), 3rd day
# Experimental: as §1
# Saos-2 cell = assay: Cell viability after GFP-TP53 plasmid transfection, Saos-2; assay type: cell-based, human; details: Saos-2, single agent: free GFP-TP53 plasmid or Mito-Flag
# Experimental: as §1
# HeLa cells [3] = assay: Uptake and mitochondrial localization of NBD-Mito-Flag in HeLa cells in the presence of inhibitors; assay type: cell-based, human; details: NBD-Mito-Flag 200 μM; for mitochondrial localization of NBD-Mito-Flag: HeLa, with inhibitor (chloroquine 10 μM; erastin; Ndz 10 μM, 1 h pretreatment; FCCP pretreatment); for uptake of NBD-Mito-Flag (intracellular fluorescence): 2 h, with endocytosis inhibitor (CPZ 5 μM)
# Experimental: FIG. 26B is a panel of confocal fluorescence images of HeLa cells incubated with NBD-Mito-Flag (200 μM) and chloroquine (10 μM). […] FIG. 26D is a panel of TEM images of mitochondria isolated from HeLa, HEK293 and HS-5 cells incubated with 200 μM Mito-Flag for 24 h. […] FIG. 26E and FIG. 26F are fluorescent images of NBD-Mito-Flag and RFP-LAMP1 in ENTK-knockdown HeLa cells. […] FIG. 26G-H are fluorescent images of the HeLa cells incubated with NBD-Mito-Flag (200 μM, 2 h) (FIG. 26G) or the mixture of virus (RFP-LAMP1) and Mito-Flag (200 μM, 24 h) (FIG. 26H) in the presence of erastin of different concentrations. […] FIG. 26I is a panel of fluorescent images of HeLa cells incubated with NBD-Mito-Flag (200 μM, 2 h) after the pretreatment by Ndz (10 μM, 1 h).
# Intracellular Fluorescence Quantification: Cells were seeded in petri dishes and incubated in standard condition for 12 h before experiment. After being treated by the condition of interest, all cells were washed by PBS (3 time for 5 min). After the washing step, cells were detached from the dishes using trypsin. The trypsin was removed by centrifuge and washing with PBS. The cell suspensions (in PBS) were diluted to 10^5 cell/mL. 100 μL diluted cell suspension was added in a 96-well plate (at least 5 wells per sample). The intracellular fluorescence intensity was immediately determined using a DTX 880 Multimode Detector (Beckman Coulter Inc.). The experiments were repeated, and the intracellular fluorescence intensity was averaged (n>3).
# MT-CO1-KO cancer cells = assay: Sensitivity of MT-CO1-KO cancer cells to chemotherapeutic agents; assay type: cell-based, human; details: MT-CO1 knocked out via Mito-Flag and CRISPR-MT-CO1 plasmid
Compound,cytotoxicity of branched peptide alone (U87MG cells),cytotoxicity of branched peptide alone (HeLa cells [1]),mitochondrial localization of NBD-Mito-Flag (HeLa cells [3]),also measured
NCCCC[C@H](NC(=O)[C@H](CC(=O)O)NC(=O)[C@H](CC(=O)O)NC(=O)[C@H](CC(=O)O)NC(=O)[C@H](CC(=O)O)NC(=O)[C@H](CCCCN)NC(=O)[C@H](Cc1ccc(O)cc1)NC(=O)[C@@H](N)CC(=O)O)C(=O)NCC(=O)NCCCC[C@@H](NC(=O)[C@@H](Cc1ccccc1)NC(=O)[C@@H](Cc1ccccc1)NC(=O)Cc1ccc2ccccc2c1)C(=O)NCCNc1ccc([N+](=O)[O-])c2nonc12 [D-1 ? FLAG] (H-DYKDDDDKG-X2),little cytotoxicity,little cytotoxicity,–,–
NCCCC[C@H](NC(=O)[C@H](CC(=O)O)NC(=O)[C@H](CC(=O)O)NC(=O)[C@H](CC(=O)O)NC(=O)[C@H](CC(=O)O)NC(=O)[C@H](CCCCN)NC(=O)[C@H](Cc1ccc(O)cc1)NC(=O)[C@@H](N)CC(=O)O)C(=O)NCC(=O)NCCCC[C@@H](NC(=O)[C@@H](Cc1ccccc1)NC(=O)[C@@H](Cc1ccccc1)NC(=O)Cc1ccc2ccccc2c1)C(=O)N[C@H](Cc1ccc(O)cc1)C(=O)O [D-2 ? FLAG] (H-DYKDDDDKG-X1),minimal cytotoxicity,minimal cytotoxicity,–,cell viability (HeLa cells [2]): hardly causes cell death; cell viability (HS-5 cells): neither free GFP-TP53 plasmid nor the mixture of Mito-Flag and GFP-TP53 plasmid impairs the viability of HS-5 cells; cell viability (Saos-2 cell): innoxious
"N#CC(C#N)=NNc1ccc(OC(F)(F)F)cc1 [FCCP, p-trifluoromethoxy carbonylcyanide phenylhydrazone]",–,–,diminishes the mitochondria-specific localization,–
NCCCC[C@H](NC(=O)[C@H](CC(=O)O)NC(=O)[C@H](CC(=O)O)NC(=O)[C@H](CC(=O)O)NC(=O)[C@H](CC(=O)O)NC(=O)[C@H](CCCCN)NC(=O)[C@H](Cc1ccc(O)cc1)NC(=O)[C@@H](N)CC(=O)O)C(=O)NCC(=O)NCCCC[C@H](NC(=O)[C@H](Cc1ccccc1)NC(=O)[C@H](Cc1ccccc1)NC(=O)Cc1ccc2ccccc2c1)C(=O)N[C@@H](Cc1ccc(O)cc1)C(=O)O [L-2 ? FLAG] (H-DYKDDDDKG-X3),minimal cytotoxicity,minimal cytotoxicity,–,–
CCN(CC)CCCC(C)Nc1ccnc2cc(Cl)ccc12 (stereo not drawn) [chloroquine],–,–,significantly reduced mitochondrial localization,–
CN(C)CCCN1c2ccccc2Sc2ccc(Cl)cc21 [chlorpromazine],–,–,–,uptake of NBD-Mito-Flag (intracellular fluorescence) (HeLa cells [3]): significantly decreases the intracellular fluorescence
N.N.[Cl][Pt][Cl] [cisplatin],–,–,–,sensitivity of MT-CO1-KO cancer cells versus wild type (MT-CO1-KO cancer cells): more sensitive
COC(=O)Nc1nc2ccc(C(=O)c3cccs3)cc2[nH]1 [nocodazole],–,–,weakened mitochondrial fluorescence,–
M-β-CD,–,–,–,uptake of NBD-Mito-Flag (intracellular fluorescence) (HeLa cells [3]): hardly affects the uptake
